Assay results published in patent US10294248B2, “Beta-lactamase inhibitors” (VenatoRx Pharmaceuticals, Inc., priority 2013, dated 2019).

Key:
[1] = biological target: T1, KPC-2 β-lactamase (Class A carbapenemase) (Klebsiella pneumoniae, UniProt Q9F663); test: β-Lactamase inhibition, KPC-2; format: biochemical; conditions: imipenem substrate, 300 nm; 15 min preincubation at 37° C., PBS pH 7.4
T1 construct: made in house; host or cells: E. coli BL21(DE3)
Method: (§1) For SHV-5, Kpc-2, p99AmpC and OXA-1 β-lactamases, E. coli BL21(DE3) bacterial cells carrying expression plasmids (expressed as native untagged proteins) for the individual β-lactamases were grown in 1 L of Superbroth (Teknova Inc. Hollister, Calif.) supplemented with 100 μg/ml kanamycin selection and 1×5052 (0.5% glycerol, 0.05% glucose and 0.2% α-lactose) at 35° C. for 18-20 hours. Cells were harvested by centrifugation (4,000×g, 4° C., 20 min), resuspended in 50 ml of 10 mM HEPES pH 7.5 ( 1/20 of the initial volume). The cells were lysed by sonication (5 pulses of 45 seconds) at 45 W on ice. The lysates were clarified by centrifugation at 10,000×g for 40 minutes at 4° C. Samples were diluted 5-fold in 50 mM sodium acetate pH 5.0, stored overnight at 4° C., after which they were centrifuged at 10,000×g for 30 minutes to clarify, and filtered through 0.45 μm filters. The samples were loaded onto a 5 ml Capto S sepharose cation exchange column (GE Healthcare) pre-equilibrated with 50 mM sodium acetate pH 5.0. The column was washed with 5 column volumes of 50 mM sodium acetate pH 5.0 to wash out unbound protein and a linear gradient of NaCl (0 to 500 mM) was used to elute the protein (over 16 CV) from the column. Fractions were assayed for β-lactamase activity using Centa (Calbiochem, Gibbstown, N.J.) or Nitrocefin (EMD Millipore chemicals, Darmstadt, Germany) as a reporter β-lactamase substrate for activity in the isolated fractions. Active fractions were pooled, concentrated and further purified by gel filtration chromatography on a Superdex 75 prep grade gel filtration column (GE Healthcare, Piscataway, N.J.) pre-equilibrated in 50 mM Hepes pH 7.5, 150 mM NaCl. Active fractions were pooled concentrated, quantitated by BCA protein determination (Thermo Scientific, Rockford, Ill.), dialyzed into PBS and frozen at −80° C. in 20% glycerol until use.
(§2) An equal volume of diluted enzyme stock was added, and the plates were incubated at 37° C. for 15 min. Nitrocefin was used as substrate for p99 AmpC, VIM-2 and OXA-1 and dispensed into each well at a final concentration of 100 μM. Absorbance at 486 nm was immediately monitored for 10 min using a Biotek Powerwave XS2 microplate spectrophotometer using the GEN5 software package (Biotek Instruments, Winooski Vt.). In an analogous fashion, imipenem was used as substrate for Kpc-2 and Cefotaxime was used for SHV-5, while changes in absorbance upon hydrolysis of the β-lactam ring were monitored at 300 nm and 260 nm respectively in UV-transparent 96-well microtiter assay plates. Maximum rates of hydrolysis were compared to those in control wells (without inhibitors), and percentages of enzyme inhibition were calculated for each concentration of inhibitor. The concentration of inhibitor needed to reduce the initial rate of hydrolysis of substrate by 50% (IC50) was calculated as the residual activity of β-lactamase at 486 nm using GraFit version 7 kinetics software package (Erithacus Software, Surrey, UK).
(§3) Using the methodology described above, examples of the current invention were evaluated for their ability to inhibit β-lactamase enzymes from all four Ambler classifications (A through D). […] NT=Not tested.

[2] = system: K. pneumoniae 156319 expressing KPC-3; test: Broth microdilution MIC, K. pneumoniae 156319 KPC-3; format: cell-based; conditions: fixed 4 μg/mL meropenem; CAMHB, 16-20 hours at 37° C.
Description: (§4) To determine the ability of test compounds to potentiate the inhibition of the growth of bacterial strains that produce beta-lactamase enzymes, classic cell based broth microdilution MIC assays were employed. Six bacteria strains producing beta-lactamase enzymes were used: E. coli expressing the Class A Extended Spectrum Beta-Lactamase (ESBL) CTX-M-15, E. cloacae expressing the Class C P99, K. pneumoniae expressing the Class A carbapenemase KPC-3, P. aeruginosa expressing the Class B carbapenemase VIM-2, K. pneumoniae expressing the class A carbapenemase KPC-2 and the class B carbapenemase VIM-4, and S. aureus producing the Class A penicillinase PC-1. The assay was conducted in Cation Adjusted Mueller Hinton Broth (CAMHB, BD #212322, BD Diagnostic Systems, Sparks, Md.). Bacteria strains were grown for 3-5 hours in CAMBH broth. Test compounds (Examples 1-30) were added to a microtiter plate in 2-fold serial dilutions in CAMHB in a final concentration range of 32 μg/mL to 0.25 μg/ml. An overlay of CAMHB containing a Beta-lactam was added to the compounds at a final static concentration of 4 μg/ml. […] In addition to the titration of test compounds the MICs of a panel of control beta-lactams is also tested to ensure the strains are behaving consistently from test to test. Once the test compound and antibiotics are added the plates can be inoculated according to CLSI broth microdilution method. After inoculation the plates are incubated for 16-20 hours at 37° C. then the Minimal Inhibitory Concentration (MIC) of the test compound is determined visually.
(§5) Using the methodology described above, examples of the current invention were evaluated for their ability to inhibit the growth of β-lactamase-producing bacteria in the presence of a β-lactam antibiotic.
(§6) Using the methodology described above in EXAMPLE III, exemplary compounds for Formula I or Formula Ia were evaluated for their ability to inhibit the growth of β-lactamase producing bacteria in the presence of a β-lactam antibiotic.

[3] = system: E. coli ESBL4 expressing CTX-M-15; test: Broth microdilution MIC, E. coli ESBL4 CTX-M-15; format: cell-based; conditions: fixed 4 μg/mL ceftazidime; CAMHB, 16-20 hours at 37° C.
Description: as §4, §5, §6

[4] = system: K. pneumoniae A-1797 expressing KPC-2 and VIM-4; test: Broth microdilution MIC, K. pneumoniae A-1797 KPC-2/VIM-4; format: cell-based; conditions: fixed 4 μg/mL meropenem; CAMHB, 16-20 hours at 37° C.
Description: as §4, §5, §6

[5] = system: S. aureus MSSA-7 producing penicillinase PC-1; test: Broth microdilution MIC, S. aureus MSSA-7 PC-1; format: cell-based; conditions: fixed 4 μg/mL piperacillin; CAMHB, 16-20 hours at 37° C.
Description: as §4, §5, §6

[6] = biological target: T2, VIM-2 metallo-β-lactamase (Class B) (Pseudomonas aeruginosa, UniProt Q9K2N0); test: β-Lactamase inhibition, VIM-2; format: biochemical; conditions: nitrocefin 100 μM, 486 nm; 15 min preincubation at 37° C., PBS pH 7.4
T2 construct: made in house; host or cells: E. coli BL21(DE3)
Method: For Vim-2 metallo β-lactamase, the procedure was identical with the following exceptions, first the protein was not pH adjusted to pH 5 with 50 mM sodium acetate, second, the chromatography step was changed to a 5 ml Q sepharose anion exchange column pre-equilibrated with 50 mM Hepes pH 7.5, and elution of the protein was achieved by a linear gradient of NaCl (0-600 mM). Finally, the VIM-2 purification required a second run (3rd step) on the Q sepharose anion exchange column to achieve acceptable purity (>90%).
as §2, §3

[7] = biological target: T3, OXA-1 β-lactamase (Class D oxacillinase) (Escherichia coli, UniProt P13661); test: β-Lactamase inhibition, OXA-1; format: biochemical; conditions: nitrocefin 100 μM, 486 nm; 15 min preincubation at 37° C., PBS pH 7.4
T3 construct: made in house; host or cells: E. coli BL21(DE3)
T3 sequence (P13661 26-276): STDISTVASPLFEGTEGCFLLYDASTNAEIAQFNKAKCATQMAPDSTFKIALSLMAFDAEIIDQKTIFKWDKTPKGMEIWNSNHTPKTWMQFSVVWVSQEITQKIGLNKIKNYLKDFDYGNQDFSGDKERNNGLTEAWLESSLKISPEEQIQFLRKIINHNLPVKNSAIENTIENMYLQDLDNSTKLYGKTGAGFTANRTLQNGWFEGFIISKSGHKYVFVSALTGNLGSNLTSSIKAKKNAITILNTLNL
Method: as §1, §2, §3

[8] = biological target: T4, SHV-5 β-lactamase (Class A ESBL) (Klebsiella pneumoniae, UniProt P0A3M1); test: β-Lactamase inhibition, SHV-5; format: biochemical
T4 construct: made in house; host or cells: E. coli BL21(DE3)
T4 sequence (P0A3M1 22-286): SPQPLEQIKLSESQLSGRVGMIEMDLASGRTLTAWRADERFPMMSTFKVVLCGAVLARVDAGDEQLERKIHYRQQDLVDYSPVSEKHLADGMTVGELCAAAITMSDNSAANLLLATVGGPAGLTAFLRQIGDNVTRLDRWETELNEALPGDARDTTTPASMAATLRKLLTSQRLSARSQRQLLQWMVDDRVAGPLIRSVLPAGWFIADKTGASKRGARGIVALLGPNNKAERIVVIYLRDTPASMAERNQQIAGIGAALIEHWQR
Method: as §1, §2, §3

[9] = biological target: T5, p99 AmpC β-lactamase (Class C) (Enterobacter cloacae, UniProt P05364); test: β-Lactamase inhibition, p99 AmpC; format: biochemical
T5 construct: made in house; host or cells: E. coli BL21(DE3)
T5 sequence (P05364 21-381): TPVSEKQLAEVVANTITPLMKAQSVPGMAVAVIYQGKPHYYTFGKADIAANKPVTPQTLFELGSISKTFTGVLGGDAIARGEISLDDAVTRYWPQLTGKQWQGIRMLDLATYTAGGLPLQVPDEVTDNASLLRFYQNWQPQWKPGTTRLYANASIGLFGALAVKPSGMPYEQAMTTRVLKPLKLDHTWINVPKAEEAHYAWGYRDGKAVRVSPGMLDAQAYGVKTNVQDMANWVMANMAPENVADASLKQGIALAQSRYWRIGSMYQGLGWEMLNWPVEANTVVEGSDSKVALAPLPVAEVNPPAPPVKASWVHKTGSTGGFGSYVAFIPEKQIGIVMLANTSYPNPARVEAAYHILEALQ
Method: as §1, §2, §3

[10] = system: P. aeruginosa Ps296 expressing VIM-2; test: Broth microdilution MIC, P. aeruginosa Ps296 VIM-2; format: cell-based; conditions: fixed 4 μg/mL meropenem; CAMHB, 16-20 hours at 37° C.
Description: as §4, §5, §6

[11] = system: E. cloacae 144200 expressing Class C P99 AmpC; test: Broth microdilution MIC, E. cloacae 144200 p99 AmpC; format: cell-based; conditions: fixed 4 μg/mL ceftazidime; CAMHB, 16-20 hours at 37° C.
Description: as §4, §5, §6

T1 sequence (Q9F663 25-293, looked up): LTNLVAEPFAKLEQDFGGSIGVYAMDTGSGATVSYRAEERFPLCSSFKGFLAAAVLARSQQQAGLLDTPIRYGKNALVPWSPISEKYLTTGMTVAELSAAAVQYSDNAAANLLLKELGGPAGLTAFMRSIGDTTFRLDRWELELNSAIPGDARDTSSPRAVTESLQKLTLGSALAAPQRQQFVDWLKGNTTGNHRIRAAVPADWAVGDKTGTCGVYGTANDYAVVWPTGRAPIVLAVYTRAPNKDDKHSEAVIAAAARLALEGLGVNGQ

Structure (SMILES)	IC50 [1] [nM]	MIC of example compound in presence of fixed β-lactam: Fixed Mero, K. P. 156319 KPC-3 [2]	MIC of example compound in presence of fixed β-lactam: Fixed CAZ, E. coli ESBL4 CTX-M-15 [3]	MIC of example compound in presence of fixed β-lactam: Fixed Mero, K. P. A-1797 KPC-2 VIM-4 [4]	MIC of example compound in presence of fixed β-lactam: Fixed Pip, S. aureus MSSA-7 PC-1 [5]	IC50 [6] [nM]	IC50 [7] [nM]	IC50 [8] [nM]	IC50 [9] [nM]	MIC of example compound in presence of fixed β-lactam: Fixed Mero, P. aerug. Ps296 VIM-2 [10]	MIC of example compound in presence of fixed β-lactam: Fixed CAZ, E. cl. 144200 p99 AmpC [11]
NCCN1CCN(CC(=O)N[C@H]2Cc3cccc(C(=O)O)c3OB2O)C(=O)C1 [Example 36, 3-{2-[4-(2-Amino-ethyl)-2-oxo-piperazin-1-yl]-acetylamino}-2-hydroxy-3,4-dihydro-2H-benzo[e][1,2]oxaborinine-8-carboxylic acid]	100 to 1000	B (the MIC in the presence of between 8 and 32 μg/mL of a β-lactamase inhibitor)	C (the MIC in the presence of <4 μg/mL of a β-lactamase inhibitor)	B (the MIC in the presence of between 8 and 32 μg/mL of a β-lactamase inhibitor)	C (the MIC in the presence of <4 μg/mL of a β-lactamase inhibitor)	1000 to 10000	< 100	< 100	< 100	B (the MIC in the presence of between 8 and 32 μg/mL of a β-lactamase inhibitor)	C (the MIC in the presence of <4 μg/mL of a β-lactamase inhibitor)
NCCN1CCC(CC(=O)N[C@H]2Cc3cccc(C(=O)O)c3OB2O)CC1 [Example 41, 3-{2-[1-(2-Amino-ethyl)-piperidin-4-yl]-acetylamino}-2-hydroxy-3,4-dihydro-2H-benzo[e][1,2]oxaborinine-8-carboxylic acid]	< 100	C (the MIC in the presence of <4 μg/mL of a β-lactamase inhibitor)	C (the MIC in the presence of <4 μg/mL of a β-lactamase inhibitor)	C (the MIC in the presence of <4 μg/mL of a β-lactamase inhibitor)	C (the MIC in the presence of <4 μg/mL of a β-lactamase inhibitor)	100 to 1000	< 100	< 100	< 100	C (the MIC in the presence of <4 μg/mL of a β-lactamase inhibitor)	C (the MIC in the presence of <4 μg/mL of a β-lactamase inhibitor)
NC1CCN(CC(=O)N[C@H]2Cc3cccc(C(=O)O)c3OB2O)CC1O (some centres unmarked) [Example 24, 3-[2-(4-Amino-3-hydroxy-piperidin-1-yl)-acetylamino]-2-hydroxy-3,4-dihydro-2H-benzo[e][1,2]oxaborinine-8-carboxylic acid]	100 to 1000	B (the MIC in the presence of between 8 and 32 μg/mL of a β-lactamase inhibitor)	C (the MIC in the presence of <4 μg/mL of a β-lactamase inhibitor)	B (the MIC in the presence of between 8 and 32 μg/mL of a β-lactamase inhibitor)	C (the MIC in the presence of <4 μg/mL of a β-lactamase inhibitor)	10000 to 100000	100 to 1000	100 to 1000	< 100	B (the MIC in the presence of between 8 and 32 μg/mL of a β-lactamase inhibitor)	C (the MIC in the presence of <4 μg/mL of a β-lactamase inhibitor)
N[C@@H]1CCN(CC(=O)N[C@H]2Cc3cccc(C(=O)O)c3OB2O)C1 [Example 6, 3-[2-(R-3-Amino-pyrrolidin-1-yl)-acetylamino]-2-hydroxy-3,4-dihydro-2H-benzo[e][1,2]oxaborinine-8-carboxylic acid]	100 to 1000	C (the MIC in the presence of <4 μg/mL of a β-lactamase inhibitor)	C (the MIC in the presence of <4 μg/mL of a β-lactamase inhibitor)	B (the MIC in the presence of between 8 and 32 μg/mL of a β-lactamase inhibitor)	A (an MIC of the fixed β-lactam antibiotic in the presence of >32 μg/mL of a β-lactamase inhibitor)	1000 to 10000	100 to 1000	< 100	< 100	B (the MIC in the presence of between 8 and 32 μg/mL of a β-lactamase inhibitor)	C (the MIC in the presence of <4 μg/mL of a β-lactamase inhibitor)
